In US10272260B2, “Methods and devices for diagnosing, monitoring, or treating medical conditions through an opening through an airway wall” (Broncus Medical Inc., priority 2011, dated 2019) one finds release profile data, which are given here for one compound.

The conditions of this data set: polymer system of polydimethylsiloxane vinyl terminated at various viscosity and a range of platinum-mono, di, tri and/or tetramethyldisiloxane complex.

From the text: The amount of vinyl siloxane cross-linker may determine the rate of the drug release and diffusivity of the polymer to the drug.

For the compound `CC(=O)O[C@H]1C(=O)[C@@]2(C)[C@H]([C@H](OC(=O)c3ccccc3)[C@]3(O)C[C@H](OC(=O)[C@H](O)[C@@H](NC(=O)c4ccccc4)c4ccccc4)C(C)=C1C3(C)C)[C@]1(OC(C)=O)CO[C@@H]1C[C@@H]2O` [paclitaxel], the release profile entry is “acceptable”.
